Test results reported in ChEMBL document CHEMBL1201862, “PubChem BioAssay data set” (2004).
The source made the active and inactive calls.

What was measured:
[1] = alpha-synuclein stem-loop luciferase translation blockers – H4 neuroglioma cells, luminescence, confirmation (AID 1988); assay type: functional, cell-based
[2] = molecular target: T1, Sphingosine 1-phosphate receptor 4 (Homo sapiens, UniProt O95977); assay: Fluorescence dose response cell-based high throughput screening assay for antagonists of the Sphingosine 1-Phosphate Receptor 4 (S1P4). [Related pubchem assays: 1524 (Confirmation in triplicates.), 1510 (Primary screen.)]; assay type: functional
T1 sequence (O95977 whole entry): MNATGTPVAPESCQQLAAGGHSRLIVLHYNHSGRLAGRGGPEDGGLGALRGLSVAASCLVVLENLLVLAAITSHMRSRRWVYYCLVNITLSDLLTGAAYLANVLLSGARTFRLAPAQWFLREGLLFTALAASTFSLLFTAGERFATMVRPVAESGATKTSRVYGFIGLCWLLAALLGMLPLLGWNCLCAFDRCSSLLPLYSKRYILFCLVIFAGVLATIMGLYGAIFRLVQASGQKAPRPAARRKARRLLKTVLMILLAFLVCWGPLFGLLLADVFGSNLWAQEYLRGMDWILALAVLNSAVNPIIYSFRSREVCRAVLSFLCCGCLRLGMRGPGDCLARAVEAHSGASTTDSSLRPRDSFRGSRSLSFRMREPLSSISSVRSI

[3] = luciferase reporter signal suppression in cells – H4 neuroglioma cells, luminescence, dose response (AID 1990); assay type: functional, cell-based
Beta-galactosidase = Beta-galactosidase (Escherichia coli, UniProt Q8VNN2); assay type: functional
Sequence of Beta-galactosidase (Q8VNN2 whole entry): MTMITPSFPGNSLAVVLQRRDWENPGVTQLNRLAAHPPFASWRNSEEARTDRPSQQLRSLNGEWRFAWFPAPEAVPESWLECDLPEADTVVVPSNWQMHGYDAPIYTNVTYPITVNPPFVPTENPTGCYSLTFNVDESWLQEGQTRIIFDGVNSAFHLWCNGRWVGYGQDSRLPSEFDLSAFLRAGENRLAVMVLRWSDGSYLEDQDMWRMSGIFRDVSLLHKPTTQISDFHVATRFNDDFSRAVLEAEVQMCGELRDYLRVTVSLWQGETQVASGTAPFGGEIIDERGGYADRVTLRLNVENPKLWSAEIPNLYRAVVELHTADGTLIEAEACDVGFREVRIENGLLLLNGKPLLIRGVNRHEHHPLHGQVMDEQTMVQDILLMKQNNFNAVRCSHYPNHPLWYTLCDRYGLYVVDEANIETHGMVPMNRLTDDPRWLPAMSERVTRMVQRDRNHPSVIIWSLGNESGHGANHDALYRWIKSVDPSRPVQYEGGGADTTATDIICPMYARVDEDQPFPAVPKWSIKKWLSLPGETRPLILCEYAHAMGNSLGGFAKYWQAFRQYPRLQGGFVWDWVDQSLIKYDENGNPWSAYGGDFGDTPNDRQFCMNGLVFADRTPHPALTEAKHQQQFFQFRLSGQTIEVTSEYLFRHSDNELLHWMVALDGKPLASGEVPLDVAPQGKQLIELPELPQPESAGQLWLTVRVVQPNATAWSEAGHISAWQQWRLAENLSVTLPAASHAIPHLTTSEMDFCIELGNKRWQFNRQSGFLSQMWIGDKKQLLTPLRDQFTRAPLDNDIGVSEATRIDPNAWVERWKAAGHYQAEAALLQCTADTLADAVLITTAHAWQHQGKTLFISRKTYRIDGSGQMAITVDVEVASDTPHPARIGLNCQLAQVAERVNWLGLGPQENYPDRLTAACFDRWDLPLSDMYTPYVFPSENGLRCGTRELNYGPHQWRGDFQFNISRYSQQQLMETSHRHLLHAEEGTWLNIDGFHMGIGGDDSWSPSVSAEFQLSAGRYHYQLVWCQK

[4] = molecular target: T2, Microphthalmia-associated transcription factor (Homo sapiens, UniProt O75030); assay: reducers of TRPM1 reporter luminescence, concentration series – cell-based, SK-MEL-5, cherry-picked, set 3, MITF inhibitor project, dose response (AID 493073); assay type: functional;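 note: SK-MEL-5 melanoma cells with luciferase driven by the MITF target TRPM1 promoter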
T2 sequence (O75030 whole entry): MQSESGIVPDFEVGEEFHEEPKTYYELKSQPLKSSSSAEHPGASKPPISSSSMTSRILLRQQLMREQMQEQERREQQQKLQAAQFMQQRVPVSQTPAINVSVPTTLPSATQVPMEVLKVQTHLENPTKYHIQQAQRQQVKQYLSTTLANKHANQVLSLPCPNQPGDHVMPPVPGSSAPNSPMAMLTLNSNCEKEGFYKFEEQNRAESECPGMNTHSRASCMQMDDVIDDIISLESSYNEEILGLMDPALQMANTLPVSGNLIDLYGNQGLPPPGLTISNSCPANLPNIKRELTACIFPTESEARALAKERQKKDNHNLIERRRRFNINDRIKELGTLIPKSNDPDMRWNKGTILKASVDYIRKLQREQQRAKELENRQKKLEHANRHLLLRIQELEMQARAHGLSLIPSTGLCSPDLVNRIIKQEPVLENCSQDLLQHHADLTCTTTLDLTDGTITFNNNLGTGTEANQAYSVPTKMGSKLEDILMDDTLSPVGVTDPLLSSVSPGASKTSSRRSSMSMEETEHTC

A-375 [5] = assay: proliferation inhibition in MITF-low A375 cells – cell-based, cherry-pick samples, set 2, counter-screen for MITF modulator project, dose response (AID 540335); assay type: functional; details: Homo sapiens
[6] = A549 cell cytotoxicity, dose response, cytotoxicity control, plate reader, cherry-pick, antagonist series (AID 743412); assay type: functional, cell-based
[7] = Luminescence Cell-Based Dose Response HTS to Identify Inhibitors of 5'UTR Stem-Loop Driven Prion Protein mRNA Translation in H4 Neuroglioblastoma Cells. [Related pubchem assays: 1827 (Project Summary), 1813 (Primary HTS)]; assay type: functional
[8] = molecular target: T3, Delta-type opioid receptor (Homo sapiens, UniProt P41143); assay: HTS Image-Based Screen for Agonists of the DOR Receptor. [Related pubchem assays (depositor defined):AID1777, AID1786, AID2133]; assay type: functional
T3 sequence (P41143 whole entry): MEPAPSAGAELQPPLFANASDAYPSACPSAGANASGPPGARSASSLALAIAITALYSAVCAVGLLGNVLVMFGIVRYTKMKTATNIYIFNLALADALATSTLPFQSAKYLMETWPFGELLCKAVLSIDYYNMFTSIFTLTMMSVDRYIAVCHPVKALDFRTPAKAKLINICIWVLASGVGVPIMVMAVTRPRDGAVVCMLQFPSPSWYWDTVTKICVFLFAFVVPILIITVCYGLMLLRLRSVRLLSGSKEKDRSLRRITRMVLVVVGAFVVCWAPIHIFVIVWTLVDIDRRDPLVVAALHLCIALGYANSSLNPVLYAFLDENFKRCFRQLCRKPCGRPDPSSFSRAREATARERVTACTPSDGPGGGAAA

[9] = viability loss in HEK293 cells – cell-based, plate reader, cherry-picked samples, cytotoxicity control, dose response (AID 743446); assay type: functional
[10] = toxicity toward HepG2 liver cells – cell-based, plate reader, cherry-pick, antagonist series, cytotoxicity control, dose response (AID 743416); assay type: functional
[11] = molecular target: T4, Kappa-type opioid receptor (Homo sapiens, UniProt P41145); assay type: functional
T4 sequence (P41145 whole entry): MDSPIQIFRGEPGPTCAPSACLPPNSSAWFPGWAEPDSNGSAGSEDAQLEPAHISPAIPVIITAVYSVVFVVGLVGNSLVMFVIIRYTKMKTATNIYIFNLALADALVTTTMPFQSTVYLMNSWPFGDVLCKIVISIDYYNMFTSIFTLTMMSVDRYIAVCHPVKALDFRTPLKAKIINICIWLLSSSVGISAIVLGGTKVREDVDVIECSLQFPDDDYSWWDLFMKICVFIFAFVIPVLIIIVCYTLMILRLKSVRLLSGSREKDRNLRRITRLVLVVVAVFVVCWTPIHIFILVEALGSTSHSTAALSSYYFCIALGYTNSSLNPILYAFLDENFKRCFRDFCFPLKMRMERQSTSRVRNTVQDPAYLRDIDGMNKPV

A-375 [12] = assay: MITF: Counter assay: A375 proliferation Measured in Cell-Based System Using Plate Reader - 2084-03_Inhibitor_Dose_DryPowder_Activity. [Related pubchem assays (depositor defined):AID488944]; assay type: functional; details: Homo sapiens
[13] = molecular target: T4, Kappa-type opioid receptor; assay type: functional; remark: listed apart in the source
[14] = NIH3T3 cell viability loss – ATP luminescence, mouse fibroblasts, counter-screen, dose response (AID 2010); assay type: functional, cell-based;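 note: cells exposed to compound for about 90 hours before reading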
Mu-type opioid receptor [15] = molecular target: T5, Mu-type opioid receptor (Homo sapiens, UniProt P35372); assay: HTS Image-Based Screen for Agonists of the MOR Receptor. [Related pubchem assays (depositor defined):AID1777, AID1785, AID1786, AID2133]; assay type: functional
T5 sequence (P35372 whole entry): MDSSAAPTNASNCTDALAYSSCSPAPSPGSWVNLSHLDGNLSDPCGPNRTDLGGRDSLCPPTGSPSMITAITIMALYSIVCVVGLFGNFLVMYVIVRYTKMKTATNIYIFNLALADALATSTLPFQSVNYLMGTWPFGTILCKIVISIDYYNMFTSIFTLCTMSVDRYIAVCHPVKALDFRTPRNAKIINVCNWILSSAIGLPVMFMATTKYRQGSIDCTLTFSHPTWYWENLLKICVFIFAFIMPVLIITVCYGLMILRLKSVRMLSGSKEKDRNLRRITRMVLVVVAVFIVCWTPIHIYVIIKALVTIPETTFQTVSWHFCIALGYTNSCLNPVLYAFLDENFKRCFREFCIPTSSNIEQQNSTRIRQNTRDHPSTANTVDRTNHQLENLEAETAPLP

[16] = blockers of bursicon-stimulated LGR2 cAMP reporter – cell-based, HEK293, CRE-luciferase reporter, cherry pick, set 2, dose response (AID 743343); assay type: functional;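 note: transfected cells were stimulated with diluted bursicon conditioned medium after compound addition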
[17] = molecular target: T3, Delta-type opioid receptor; assay: HTS Image-Based Screen for Antagonists of the DOR Receptor. [Related pubchem assays (depositor defined):AID1777, AID1785, AID1786, AID2133]; assay type: functional
[18] = molecular target: T6, Sphingosine 1-phosphate receptor 1 (Homo sapiens, UniProt P21453); assay type: functional
T6 sequence (P21453 whole entry): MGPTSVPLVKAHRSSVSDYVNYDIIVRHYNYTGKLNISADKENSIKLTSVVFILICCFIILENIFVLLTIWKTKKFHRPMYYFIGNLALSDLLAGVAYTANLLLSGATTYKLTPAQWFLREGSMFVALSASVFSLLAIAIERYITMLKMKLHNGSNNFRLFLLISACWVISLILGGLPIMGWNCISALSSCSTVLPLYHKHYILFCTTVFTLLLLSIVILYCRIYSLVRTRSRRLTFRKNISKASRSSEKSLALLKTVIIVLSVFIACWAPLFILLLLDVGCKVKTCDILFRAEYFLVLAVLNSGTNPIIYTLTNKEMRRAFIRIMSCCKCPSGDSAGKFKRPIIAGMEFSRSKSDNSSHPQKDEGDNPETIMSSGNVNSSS

[19] = Trypanosoma cruzi growth suppression in host cells – NIH3T3 host cells, beta-gal luminescence, confirmation (AID 2044); assay type: functional, cell-based;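 note: intracellular parasites grown in NIH/3T3 mouse fibroblasts as host cells; luminescent beta-galactosidase reporter signal from transgenic T. cruzi replicating inside host cells; inhibitors lower the luminescence signal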
[20] = blockade of melanocortin 4 receptor signaling – cell-based, plate reader, cherry pick, counter-screen for LGR2 antagonist project, dose response (AID 743444); assay type: functional;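 note: transfected HEK 293 cells stimulated with alpha-MSH peptide; potency of inhibitors of the alpha-MSH evoked signal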
[21] = molecular target: Sphingosine 1-phosphate receptor 5 (Homo sapiens, UniProt Q9H228); assay: Late stage counterscreen assay for S1P4 antagonists: Fluorescence dose response cell-based screening assay for antagonists of the Sphingosine 1-Phosphate Receptor 5 (S1P5). [Related pubchem assays (depositor defined):AID1510, AID1524, AID1692, AID1853, AID2332, AID489009, AID489017]; assay type: functional
Sequence of Sphingosine 1-phosphate receptor 5 (Q9H228 whole entry): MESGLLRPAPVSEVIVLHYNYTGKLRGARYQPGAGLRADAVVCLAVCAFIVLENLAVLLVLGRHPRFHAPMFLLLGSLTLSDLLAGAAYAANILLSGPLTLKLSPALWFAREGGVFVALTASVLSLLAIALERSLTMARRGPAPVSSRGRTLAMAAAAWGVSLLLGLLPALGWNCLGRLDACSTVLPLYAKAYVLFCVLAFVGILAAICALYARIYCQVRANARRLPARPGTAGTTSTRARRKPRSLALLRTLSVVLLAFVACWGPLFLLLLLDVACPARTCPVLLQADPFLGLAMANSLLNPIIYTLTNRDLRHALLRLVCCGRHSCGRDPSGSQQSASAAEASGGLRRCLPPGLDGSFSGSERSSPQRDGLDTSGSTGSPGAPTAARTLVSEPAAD

[22] = molecular target: T6, Sphingosine 1-phosphate receptor 1; assay: Late stage counterscreen assay for S1P4 antagonists: Fluorescence dose response cell-based screening assay for antagonists of the Sphingosine 1-Phosphate Receptor 1 (S1P1). [Related pubchem assays (depositor defined):AID1510, AID1524, AID1692, AID1853, AID2332, AID489009, AID489017]; assay type: functional
[23] = molecular target: T1, Sphingosine 1-phosphate receptor 4; assay: potency of S1P4 blockers – cell-based, fluorescence, synthesized analogues, late-stage follow-up (AID 2346); assay type: functional
[24] = molecular target: Sphingosine 1-phosphate receptor 2 (Homo sapiens, UniProt O95136); assay: Late stage counterscreen assay for S1P4 antagonists: Fluorescence dose response cell-based screening assay for antagonists of the Sphingosine 1-Phosphate Receptor 2 (S1P2). [Related pubchem assays (depositor defined):AID1510, AID1524, AID1692, AID1853, AID2332, AID489009, AID489017]; assay type: functional
Sequence of Sphingosine 1-phosphate receptor 2 (O95136 whole entry): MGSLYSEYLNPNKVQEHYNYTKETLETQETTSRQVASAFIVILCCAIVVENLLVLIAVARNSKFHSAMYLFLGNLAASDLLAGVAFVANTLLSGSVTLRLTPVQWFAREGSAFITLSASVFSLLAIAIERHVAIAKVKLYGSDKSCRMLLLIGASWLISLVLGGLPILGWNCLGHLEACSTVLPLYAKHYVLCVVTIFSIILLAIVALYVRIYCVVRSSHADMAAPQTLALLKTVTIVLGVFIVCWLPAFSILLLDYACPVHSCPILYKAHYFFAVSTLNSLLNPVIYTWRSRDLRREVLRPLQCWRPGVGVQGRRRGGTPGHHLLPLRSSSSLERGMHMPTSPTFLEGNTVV

[25] = molecular target: Sphingosine 1-phosphate receptor 3 (Homo sapiens, UniProt Q99500); assay: Late stage counterscreen assay for S1P4 antagonists: Fluorescence dose response cell-based screening assay for antagonists of the Sphingosine 1-Phosphate Receptor 3 (S1P3). [Related pubchem assays (depositor defined):AID1510, AID1524, AID1692, AID1853, AID2332, AID489009, AID489017]; assay type: functional
Sequence of Sphingosine 1-phosphate receptor 3 (Q99500 whole entry): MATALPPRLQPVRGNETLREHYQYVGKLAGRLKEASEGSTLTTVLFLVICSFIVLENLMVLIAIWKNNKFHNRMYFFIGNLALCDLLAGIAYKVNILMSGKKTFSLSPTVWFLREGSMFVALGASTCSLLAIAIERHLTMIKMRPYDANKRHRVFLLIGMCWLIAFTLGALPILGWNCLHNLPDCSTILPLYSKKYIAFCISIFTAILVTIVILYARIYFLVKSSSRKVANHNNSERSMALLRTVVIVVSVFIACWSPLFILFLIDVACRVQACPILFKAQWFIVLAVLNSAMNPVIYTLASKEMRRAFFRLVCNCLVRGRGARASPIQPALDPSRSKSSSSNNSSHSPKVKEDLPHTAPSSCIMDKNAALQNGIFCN

Mu-type opioid receptor [26] = molecular target: T5, Mu-type opioid receptor; assay: SAR Analysis of Agonists of the MOR Receptor using an Image-Based Assay - Set 3. [Related pubchem assays (depositor defined):AID1777, AID1785, AID1786, AID1966, AID2133, AID2136, AID2284, AID2285, AID2352]; assay type: functional
Mu-type opioid receptor [27] = molecular target: T5, Mu-type opioid receptor; assay: SAR Analysis of Antagonists of the MOR Receptor using an Image-Based Assay - Set 2. [Related pubchem assays (depositor defined):AID1777, AID1785, AID1786, AID1966, AID2133, AID2136, AID2284, AID2285, AID2420]; assay type: functional
[28] = molecular target: T4, Kappa-type opioid receptor; assay: kappa opioid receptor activation by imaging – image-based, set 3, SAR follow-up (AID 488833); assay type: functional
[29] = molecular target: T4, Kappa-type opioid receptor; assay: SAR analysis of small molecule agonists of the kappa opioid receptor via a luminescent beta-arrestin assay - Set 3. [Related pubchem assays (depositor defined):AID1777, AID1785, AID1786, AID1966, AID2133, AID2136, AID2284, AID2500]; assay type: functional
[30] = molecular target: T3, Delta-type opioid receptor; assay: SAR Analysis of Antagonists of the DOR Receptor using an Image-Based Assay - Set 2. [Related pubchem assays (depositor defined):AID1777, AID1785, AID1786, AID1966, AID2133, AID2136, AID2284, AID2285, AID2357]; assay type: functional
Mu-type opioid receptor [31] = molecular target: T5, Mu-type opioid receptor; assay: SAR Analysis of Agonists of the MOR Receptor using an Image-Based Assay - Set 2. [Related pubchem assays (depositor defined):AID1777, AID1785, AID1786, AID1966, AID2133, AID2136, AID2284, AID2285, AID2352]; assay type: functional
[32] = molecular target: T3, Delta-type opioid receptor; assay: SAR Analysis of Agonists of the DOR Receptor using an Image-Based Assay - Set 2. [Related pubchem assays (depositor defined):AID1777, AID1785, AID1786, AID1966, AID2133, AID2136, AID2284, AID2285, AID2370]; assay type: functional
[33] = molecular target: T4, Kappa-type opioid receptor; assay: SAR analysis of Antagonists of the Kappa Opioid Receptor (KOR) using an Image-Based Assay - Set 2. [Related pubchem assays (depositor defined):AID1777, AID1785, AID1786, AID1966, AID2133, AID2136, AID2284, AID2285, AID2348]; assay type: functional
[34] = molecular target: T3, Delta-type opioid receptor; assay: SAR Analysis of Agonists of the DOR Receptor using an Image-Based Assay - Set 3. [Related pubchem assays (depositor defined):AID1777, AID1786]; assay type: functional
[35] = molecular target: Nuclear receptor ROR-gamma (Homo sapiens, UniProt P51449); assay: LXR, FXR and VP16 reporter activity, cell-based, luciferase reporter, ROR modulator project, late-stage follow-up, panel member RORG (AID 2117)
[36] = molecular target: Nuclear receptor ROR-alpha (Homo sapiens, UniProt P35398); assay: LXR, FXR and VP16 reporter activity, cell-based, luciferase reporter, ROR modulator project, late-stage follow-up, panel member RORA (AID 2117)
Sequence of Nuclear receptor ROR-alpha (P35398 whole entry): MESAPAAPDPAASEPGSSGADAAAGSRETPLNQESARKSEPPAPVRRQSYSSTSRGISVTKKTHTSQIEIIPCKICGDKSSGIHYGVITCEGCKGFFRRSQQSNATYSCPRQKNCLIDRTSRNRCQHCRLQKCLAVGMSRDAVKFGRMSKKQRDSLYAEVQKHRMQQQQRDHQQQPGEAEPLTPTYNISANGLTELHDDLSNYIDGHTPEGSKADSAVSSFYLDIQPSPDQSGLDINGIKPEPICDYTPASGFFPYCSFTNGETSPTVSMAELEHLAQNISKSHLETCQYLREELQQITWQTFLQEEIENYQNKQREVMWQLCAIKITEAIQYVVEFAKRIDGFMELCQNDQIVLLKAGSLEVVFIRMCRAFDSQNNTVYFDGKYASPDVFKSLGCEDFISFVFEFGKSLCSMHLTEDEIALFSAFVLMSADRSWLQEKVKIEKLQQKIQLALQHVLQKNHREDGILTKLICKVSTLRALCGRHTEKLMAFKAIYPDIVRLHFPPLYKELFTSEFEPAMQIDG

[37] = molecular target: G-protein coupled receptor 55 (Homo sapiens, UniProt Q9Y2T6); assay: inhibition of LPI-stimulated GPR55 beta-arrestin translocation – imaging, U2OS, beta-arrestin-GFP, LPI agonist, primary screen (AID 2013); assay type: functional;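 note: antagonist potency measured as reduced agonist-driven arrestin aggregation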
Sequence of G-protein coupled receptor 55 (Q9Y2T6 whole entry): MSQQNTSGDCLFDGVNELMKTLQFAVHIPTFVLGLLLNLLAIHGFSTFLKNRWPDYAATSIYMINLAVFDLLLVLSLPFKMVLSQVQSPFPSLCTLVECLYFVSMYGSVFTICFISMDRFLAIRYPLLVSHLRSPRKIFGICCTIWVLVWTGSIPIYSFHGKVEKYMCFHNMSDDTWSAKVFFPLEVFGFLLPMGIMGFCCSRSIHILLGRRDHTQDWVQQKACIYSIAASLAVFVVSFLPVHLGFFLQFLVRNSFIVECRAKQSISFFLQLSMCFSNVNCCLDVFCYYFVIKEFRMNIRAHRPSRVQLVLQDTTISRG

[38] = Counterscreen for AddAB inhibitors: absorbance-based bacterial cell-based high throughput dose response assay for inhibitors of bacterial viability. [Related pubchem assays (depositor defined):AID435030, AID449728, AID449731, AID488942, AID488955, AID488956]; assay type: functional
Exodeoxyribonuclease V = Exodeoxyribonuclease V (Escherichia coli (strain K12), UniProt P04993+P07648+P08394); assay: RecBCD inhibition via phage-restricted bacterial growth – absorbance, V66 E. coli, mutant T4 phage, counter-screen for AddAB inhibitor project, dose response (AID 492957); assay type: functional, cell-based, Escherichia coli str. K-12 substr. MG1655

Compound: O=C(Cn1ncc(Cl)c(Cl)c1=O)N1CCc2ccccc21
- EC50 [1]: > 120 µM (not active)
- IC50 [2]: 1.64 µM (active)
- EC50 [3]: 8.12 µM (active)
- EC50 (Beta-galactosidase): > 31.5 µM (inactive)
- AC50 [4]: 6.1 µM (active)
- AC50 (A-375 [5]): > 35 µM (active)
- AC50 [6]: 7.68 µM (active)
- EC50 [7]: 7.57 µM (active)
- EC50 [8]: > 32 µM (inactive)
- AC50 [9]: 4.3 µM (active)
- AC50 [10]: 16.3 µM (active)
- IC50 [11]: 2.85 µM
- AC50 (A-375 [12]): > 35 µM (active)
- IC50 [13]: 5.51 µM (active)
- EC50 [14]: 4.51 µM (active)
- EC50 (Mu-type opioid receptor [15]): > 32 µM (inactive)
- AC50 [16]: 7.11 µM (active)
- IC50 [17]: 14.7 µM (inactive)
- IC50 [18]: 5.51 µM (active)
- EC50 [19]: 2.46 µM (active)
- AC50 [20]: 8.77 µM (active)

Compound: Cc1ccc(NC(=O)c2ccc(-c3cc(Cl)ccc3Cl)o2)c(C)c1
- IC50 [21]: > 25 µM (inactive)
- IC50 [22]: > 25 µM (inactive)
- IC50 [23]: 0.182 µM (active)
- IC50 [24]: > 25 µM (inactive)
- IC50 [25]: > 25 µM (inactive)

Compound: Clc1ccc(CSc2nnc(-c3ccccn3)n2Cc2cccs2)cc1Cl
- EC50 (Mu-type opioid receptor [26]): > 32 µM (inactive)
- IC50 (Mu-type opioid receptor [27]): > 32 µM (inactive)
- EC50 [28]: 0.349 µM (active)
- EC50 [29]: 0.454 µM (active)
- IC50 [30]: > 32 µM (inactive)
- EC50 (Mu-type opioid receptor [31]): > 32 µM (inactive)
- EC50 [32]: > 32 µM (inactive)
- IC50 [33]: > 32 µM (inactive)
- EC50 [34]: > 64 µM (inactive)

Compound: CC(C)(C)c1ccc(S(=O)(=O)Nc2ccc(C(O)(C(F)(F)F)C(F)(F)F)cc2)cc1
- IC50 [35]: > 20 µM (inactive)
- IC50 [36]: 2.47 µM (active)

Compound: O=[N+]([O-])c1c(O)oc2ccccc2/c1=N\C(c1ccccc1)c1ccccc1
- IC50 [37]: 2.79 µM (active)
- IC50 [38]: > 119 µM (inactive)
- IC50 (Exodeoxyribonuclease V): > 119 µM (inactive)
